The values below come from US20250066289A1, “BIGUANIDE DERIVATIVE OF IBUPROFEN AND PROCESS OF PREPARATION THEREOF” (BVDU's Poona College of Pharmacy, priority 2023, published 2025).

One assay deals with CAR-induced paw edema. In words: CAR-induced paw edema anti-inflammatory study. Particulars: for water volume displacement digital plethysmometer (paw volume): 5 mg/kg i.p., Mean ± SD, n=4. The assay is classed as in vivo, Male Wistar rats. As for the experimental part: (§1) Male Wistar rats weighing between 200 and 250 g were used for the studies. The animals were kept in animal cages with free access to standard pellet food and water at a temperature of 23±2° C., a 12-hour cycle of darkness and light, and a relative humidity of roughly 45 to 65%. The Institutional Animal Ethics Committee (IAEC) authorized the protocol, and the animal experiments were carried out in accordance with it as well as the Indian regulations established by the Committee for the Purpose of Control and Supervision of Experimental Animals (CPCSEA), New Delhi.
In the second experiment, the anti-inflammatory effect of Biguanide of Ibuprofen in comparison Ibuprofen was assessed by CAR-induced paw edema. The experimental groups were designed as follows (n=4 per group): • Group 1. Control group: 100 μl saline (i.d.)+saline (i.p.), • Group 2. CAR group: 100 μl CAR (i.d.)+saline (i.p.), • Group 3. Ibuprofen 5 mg/kg group: 100 μl CAR (i.d.)+5 mg/kg Ibuprofen (i.p.), • Group 4. Biguanide of Ibuprofen 5 mg/kg group: 100 μl CAR (i.d.)+5 mg/kg Biguanide of Ibuprofen (i.p.),
Carrageenan (100 μl) was injected by i.d. route per rat into the right hind paw. The rats were injected with i.p. Ibuprofen (5 mg/kg), and Biguanide of Ibuprofen (5 mg/kg) immediately after CAR injection. Saline was given to the control group. The paw volume was measured plethysmographically at 0 min, 30 min, 60 min, 90 min, 120 min, 180 min and 240 min. The 0th min reading was considered as the initial paw size of the rats. The change in the paw volume in the test groups was compared with the untreated control groups. The reduction in paw volume (mL) with the help of water plethysmometer was recorded.

Assay [1] has as its system STZ induced diabetic rats. In words: STZ induced diabetic study, fasting blood glucose. The assay is classed as in vivo, Male Wistar rats. Particulars: for Fasting Blood Glucose (FBG): Mean ± SD, n=4. The method, then: as §1
An intraperitoneal injection of streptozotocin (STZ, 55 mg/kg of body weight) was used to cause diabetes. STZ was dissolved in 0.1 mol/L citrate buffer, pH 4.5, and injected into the peritoneal cavity. The fasting blood glucose concentration (FBG) was used for diagnosis of diabetes. Animals having blood glucose level greater than 16.7 mmol/L after 24 hours were deemed diabetic. These animals were further selected for the study.
The animals (n=4) were divided into four groups. • Group 1: treated with vehicle (distilled water) vehicle control; • Group 2: treated with vehicle (drinking water and STZ) diabetic control; • Group 3: treated with metformin (10 mg/kg body weight/day in drinking water) diabetic test; and • Group 4: treated with Biguanide of Ibuprofen (10 mg/kg body weight/day in drinking water) diabetic test.
The treatment with metformin and Biguanide of Ibuprofen was given for 14 days. And at the end of treatment fasting blood glucose estimation was performed.

Where [2] appears, read: Day 7, 10 mg/kg body weight/day in drinking water.
[3] abbreviates: Day 14, 10 mg/kg body weight/day in drinking water.

Regarding `CC(C)Cc1ccc(C(C)C(=O)NNC(=N)NC(=N)N)cc1` (centres unmarked) [Biguanide of Ibuprofen, N-carbamimidoyl-2-(2-(4-isobutylphenyl)propanoyl) hydrazine-1-carboximidamide], the “water volume displacement digital plethysmometer (paw volume)” value is 0.692 ± 0.012 mL in the assay on CAR-induced paw edema (0 min (initial paw size)); 0.853 ± 0.016 mL in the assay on CAR-induced paw edema (30 min after CAR); 0.940 ± 0.013 mL in the assay with CAR-induced paw edema (60 min after CAR); 0.875 ± 0.021 mL in the assay on CAR-induced paw edema (90 min after CAR); 0.815 ± 0.015 mL in the assay on CAR-induced paw edema (120 min after CAR); 0.740 ± 0.018 mL in the assay with CAR-induced paw edema (180 min after CAR). Further, the “water volume displacement digital plethysmometer (paw volume)” value in the assay on CAR-induced paw edema (240 min after CAR) is 0.710 ± 0.011 mL. Further, in the assay on CAR-induced paw edema (CAR-induced paw edema, both 5 mg/kg i.p.), the “Paw volume compared to Ibuprofen (in words)” value is “significantly decreased paw volume, when compared to that of the Ibuprofen”. For the same molecule, the “Effect on FBG levels in diabetic rats (in words)” value in assay [1] (10 mg/kg/day, 14 days) is on record as “significant lowering of FBG levels”. Moreover, the figures for the “Fasting Blood Glucose (FBG)” value in assay [1] (setting [2]) and in assay [1] (setting [3]) were 22.93 ± 0.97 mmol/L and 6.38 ± 0.86 mmol/L, respectively. Moreover, the “Reduction in FBG compared to metformin (in words)” value in assay [1] (both 10 mg/kg/day, 14 days) is recorded as “more marked reduction in FBG when compared to metformin”.

As to `CN(C)C(=N)N=C(N)N` [metformin, 3-(diaminomethylidene)-1,1-dimethylguanidine, reference compound], the entries for the “Fasting Blood Glucose (FBG)” value in assay [1] (setting [2]) and in assay [1] (setting [3]) were 22.77 ± 1.12 mmol/L and 10.27 ± 1.21 mmol/L, respectively.
